From PubChem BioAssay (NCI)
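A five-concentration, 48-hour dose response in 96-well plates underlies each endpoint, interpolated linearly between surrounding concentrations. GI50: concentration for 50% inhibition of growth. The concentration for full growth arrest is given as TGI.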

How the values were obtained:
Assay in all cases: NCI anticancer screen, dose series, 48 h; in the data active = GI50 below about 0.43 µM; inactive = the rest
EKVX NSCLC = test system: EKVX NSCLC
SF-539 CNS = test system: SF-539 CNS
A549 NSCLC = test system: A549 NSCLC
MDA-MB-435 = test system: MDA-MB-435
UO-31 renal = test system: UO-31 renal
UACC-257 melanoma = test system: UACC-257 melanoma
NCI-H23 lung = test system: NCI-H23 lung
RPMI-8226 leukemia = test system: RPMI-8226 leukemia
T-47D breast = test system: T-47D breast
SW-620 colon = test system: SW-620 colon
SNB-19 CNS = test system: SNB-19 CNS
K-562 leukemia = test system: K-562 leukemia
OVCAR-3 ovarian = test system: OVCAR-3 ovarian
NCI-H226 lung = test system: NCI-H226 lung
SK-MEL-28 melanoma = test system: SK-MEL-28 melanoma
HL-60(TB) leukemia = test system: HL-60(TB) leukemia
SNB-75 CNS = test system: SNB-75 CNS
HOP-92 NSCLC = test system: HOP-92 NSCLC
PC-3 prostate = test system: PC-3 prostate
TK-10 renal = test system: TK-10 renal
NCI-H460 lung = test system: NCI-H460 lung
HOP-62 NSCLC = test system: HOP-62 NSCLC
NCI-H522 lung = test system: NCI-H522 lung
SK-OV-3 ovarian = test system: SK-OV-3 ovarian
OVCAR-5 ovarian = test system: OVCAR-5 ovarian
MOLT-4 leukemia = test system: MOLT-4 leukemia
M14 melanoma = test system: M14 melanoma
SK-MEL-2 melanoma = test system: SK-MEL-2 melanoma
HCT-15 colon = test system: HCT-15 colon
SR leukemia = test system: SR leukemia
786-0 renal = test system: 786-0 renal
HCT-116 colon = test system: HCT-116 colon
SF-268 CNS = test system: SF-268 CNS
ACHN renal = test system: ACHN renal
SK-MEL-5 melanoma = test system: SK-MEL-5 melanoma
DU-145 prostate = test system: DU-145 prostate
LOX IMVI melanoma = test system: LOX IMVI melanoma
CAKI-1 renal = test system: CAKI-1 renal
BT-549 breast = test system: BT-549 breast
RXF 393 renal = test system: RXF 393 renal
MALME-3M melanoma = test system: MALME-3M melanoma
A498 renal = test system: A498 renal
COLO 205 colon = test system: COLO 205 colon
HCC-2998 colon = test system: HCC-2998 colon
MCF7 breast = test system: MCF7 breast
MDA-MB-231 breast = test system: MDA-MB-231 breast
IGROV1 ovarian = test system: IGROV1 ovarian
UACC-62 melanoma = test system: UACC-62 melanoma
OVCAR-8 ovarian = test system: OVCAR-8 ovarian
OVCAR-4 ovarian = test system: OVCAR-4 ovarian
KM12 colon = test system: KM12 colon
CCRF-CEM leukemia = test system: CCRF-CEM leukemia
NCI/ADR-RES ovarian = test system: NCI/ADR-RES ovarian
HS 578T breast = test system: HS 578T breast
SN12C renal = test system: SN12C renal
SF-295 CNS = test system: SF-295 CNS
U251 CNS = test system: U251 CNS
HT29 colon = test system: HT29 colon

COc1ccc(-c2nccn2-c2cc(OC)c(OC)c(OC)c2)cc1
> 77.6 µM: TGI (HS 578T breast)
active: GI50 (MDA-MB-435) 0.222 µM
39.9 µM: TGI (HCC-2998 colon)
> 46.2 µM: TGI (HT29 colon)
26.6 µM: TGI (RXF 393 renal)
> 100 µM: TGI (EKVX NSCLC) | TGI (A549 NSCLC) | TGI (UACC-257 melanoma) | TGI (NCI-H23 lung) | TGI (T-47D breast) | TGI (SW-620 colon) | TGI (K-562 leukemia) | TGI (NCI-H226 lung) | TGI (SK-MEL-28 melanoma) | TGI (HL-60(TB) leukemia) | TGI (HOP-92 NSCLC) | TGI (PC-3 prostate) | TGI (TK-10 renal) | TGI (NCI-H460 lung) | TGI (HOP-62 NSCLC) | TGI (NCI-H522 lung) | TGI (MOLT-4 leukemia) | TGI (M14 melanoma) | TGI (SK-MEL-2 melanoma) | TGI (HCT-15 colon) | TGI (SR leukemia) | TGI (786-0 renal) | TGI (HCT-116 colon) | TGI (SF-268 CNS) | TGI (ACHN renal) | TGI (DU-145 prostate) | TGI (LOX IMVI melanoma) | TGI (BT-549 breast) | TGI (MALME-3M melanoma) | TGI (MCF7 breast) | TGI (IGROV1 ovarian) | TGI (OVCAR-8 ovarian) | TGI (OVCAR-4 ovarian) | TGI (KM12 colon) | TGI (CCRF-CEM leukemia) | TGI (SN12C renal) | TGI (U251 CNS)
inactive: GI50 (EKVX NSCLC) > 54.5 µM | GI50 (SF-539 CNS) 5.78 µM | GI50 (A549 NSCLC) 4.94 µM | GI50 (UO-31 renal) 9.38 µM | GI50 (UACC-257 melanoma) 73.1 µM | GI50 (NCI-H23 lung) 9.09 µM | GI50 (RPMI-8226 leukemia) 8.06 µM | GI50 (T-47D breast) 9.55 µM | GI50 (SW-620 colon) 1.34 µM | GI50 (SNB-19 CNS) 4.77 µM | GI50 (K-562 leukemia) 1.5 µM | GI50 (OVCAR-3 ovarian) 1.07 µM | GI50 (NCI-H226 lung) 14.6 µM | GI50 (SK-MEL-28 melanoma) 20.6 µM | GI50 (HL-60(TB) leukemia) 25.4 µM | GI50 (SNB-75 CNS) 1.51 µM | GI50 (HOP-92 NSCLC) 7.01 µM | GI50 (PC-3 prostate) 1.81 µM | GI50 (TK-10 renal) 10.7 µM | GI50 (NCI-H460 lung) 1.6 µM | GI50 (HOP-62 NSCLC) 13.7 µM | GI50 (NCI-H522 lung) 2.8 µM | GI50 (SK-OV-3 ovarian) 6.13 µM | GI50 (OVCAR-5 ovarian) 10.8 µM | GI50 (MOLT-4 leukemia) 18.3 µM | GI50 (M14 melanoma) 6 µM | GI50 (SK-MEL-2 melanoma) 36.1 µM | GI50 (HCT-15 colon) 1.16 µM | GI50 (SR leukemia) > 100 µM | GI50 (786-0 renal) 13.6 µM | GI50 (HCT-116 colon) 1.9 µM | GI50 (SF-268 CNS) 16.6 µM | GI50 (ACHN renal) 6.07 µM | GI50 (SK-MEL-5 melanoma) 0.758 µM | GI50 (DU-145 prostate) 13.1 µM | GI50 (LOX IMVI melanoma) 8.76 µM | GI50 (CAKI-1 renal) 1.22 µM | GI50 (BT-549 breast) > 32.1 µM | GI50 (RXF 393 renal) 1.12 µM | GI50 (MALME-3M melanoma) 1.96 µM | GI50 (A498 renal) 0.909 µM | GI50 (COLO 205 colon) 0.598 µM | GI50 (HCC-2998 colon) 1.09 µM | GI50 (MCF7 breast) 1.27 µM | GI50 (MDA-MB-231 breast) 7.62 µM | GI50 (IGROV1 ovarian) 1.79 µM | GI50 (UACC-62 melanoma) 0.675 µM | GI50 (OVCAR-8 ovarian) 12 µM | GI50 (OVCAR-4 ovarian) 15.3 µM | GI50 (KM12 colon) 0.451 µM | GI50 (CCRF-CEM leukemia) 8.13 µM | GI50 (NCI/ADR-RES ovarian) 1.17 µM | GI50 (HS 578T breast) 8.9 µM | GI50 (SN12C renal) 9.81 µM | GI50 (SF-295 CNS) 1.78 µM | GI50 (U251 CNS) 3.85 µM | GI50 (HT29 colon) 1.05 µM
24.1 µM: TGI (UACC-62 melanoma)
> 79.4 µM: TGI (OVCAR-5 ovarian)
> 93.2 µM: TGI (RPMI-8226 leukemia)
> 77.1 µM: TGI (CAKI-1 renal)
> 35.6 µM: TGI (SNB-19 CNS)
90.3 µM: TGI (MDA-MB-231 breast)
7.29 µM: TGI (COLO 205 colon)
22.2 µM: TGI (NCI/ADR-RES ovarian)
> 76.3 µM: TGI (SNB-75 CNS)
> 93 µM: TGI (UO-31 renal)
3.25 µM: TGI (MDA-MB-435)
24.4 µM: TGI (SF-539 CNS)
> 25.6 µM: TGI (SK-OV-3 ovarian)
> 68.1 µM: TGI (SF-295 CNS)
> 69.5 µM: TGI (SK-MEL-5 melanoma)
